# Experimental data from US20240118210A1, “FFN FLUORESCENCE RELEASE ASSAY (FFRA) AND METHODS OF USING SAME” (Duke University, priority 2021, published 2024).
# B1: PF4: 31.2 kDa protein synthesized primarily by megakaryocytes and stored in platelet alpha granules (protein, UniProt P02776 32-101, looked up)
# Platelet factor 4: EAEEDGDLQCLCVKTTSQVRPRHITSLEVIKAGPHCPTAQLIATLKNGRKICLDLQAPLYKKIIKKLLES
# How the values were obtained:
# [1] = system: healthy donor platelets; test: FFN246 release with platelet activation by several platelet agonists (Example 3, FIG. 2); assay type: cell-based; conditions: for MFI of platelet releasate, FFN246+agonist: platelets loaded with 50 μM FFN246, 45 min, A23187 10 μM, ADP 25 μM, ristocetin 73 μM, collagen 63 nM, IIa 278 nM, PAR4 peptide 200 μM, SFLLRN 100 μM
# Description: To determine if FFN246 loaded platelets release FFN246 with other platelet agonists and receptor mechanisms, FFN246 release was examined by incubating platelets with several platelet secretogogues, including collagen, IIa, PAR4, SFLLRN. […] Collagen stimulates the GP VI receptor; ADP stimulates the P2Y1 and P2Y12 receptors; IIa activates PAR1 and PAR4 receptors; SFLLRN binds to the PAR1 receptor; PAR4 agonist binds the PAR4 receptor.
# To examine the effect of various platelet agonists on FFN246 release, healthy donor platelets were washed and incubated with and without FFN246 (50 μM) for 30 minutes, followed by the addition of 1 mM imipramine for 10 minutes to block further reuptake. Platelets were then incubated with the various conditions: (1) A23187 10 μM; (2) buffer alone; (3) ADP 25 μM; (4) ristocetin 73 μM; (5) collagen 63 nM; (6) IIa 278 nM; (7) PAR4 peptide 200 μM; (8) SFLLRN 100 μM: and (9) buffer only platelets+A23187 (10 μM) for 45 minutes. Following incubation with agonists, platelets were centrifuged for 10 minutes at 576×g. Fluorescence in the platelet releasate (i.e. supernatant) was measured in a BMG Labtech Fluostar Optima fluorometer at an appropriate emission/excitation spectra. Gain was set using the FFN246 releasate for each concentration at 50% of maximum signal.
# [2] = system: healthy donor washed platelets; test: FFN246 release on platelet activation with HIT-like monoclonal antibody KKO (Example 4, FIG. 3); assay type: cell-based; conditions: for MFI of platelet releasate, FFN246+agonist or antibody, no heparin: platelets loaded with 50 μM FFN246, 45 min, collagen 63 nM, SFLLRN 100 μM, KKO alone 25 μg/mL
# Description: To examine the effect of various platelet agonists on FFN246 release, healthy donor washed platelets were incubated with 50 μM FFN246 for 30 minutes, followed by addition of 1 mM imipramine for 10 minutes to block further reuptake. Platelets were then incubated with (1) A23187 10 μM; (2) collagen 63 nM; (3) SFLLRN 100 μM; (4) buffer; (5) KKO alone 25 μg/mL; (6) 0.5 U/mL heparin, 25 μg/ml KKO; (7) 10 U/mL heparin, 25 μg/mL KKO; (8) 0.5 U/mL heparin, 25 μg/mL TRA; and (9) A23187 10 μM (no FFN246). Incubation occurred for 45 minutes and platelets were centrifuged for 10 minutes at 576×g. Fluorescence in the platelet releasate was measured in a BMG Labtech Fluostar optima fluorometer at an appropriate emission/excitation spectra. Gain was set using the FFN246 releasate for each concentration at 50% of maximum signal.
# [3] = biological target: norepinephrine transporters (NET) (Homo sapiens, UniProt P23975); conditions: relative to SERT uptake; cited from earlier work
# Chain of norepinephrine transporters (NET) (P23975 whole entry): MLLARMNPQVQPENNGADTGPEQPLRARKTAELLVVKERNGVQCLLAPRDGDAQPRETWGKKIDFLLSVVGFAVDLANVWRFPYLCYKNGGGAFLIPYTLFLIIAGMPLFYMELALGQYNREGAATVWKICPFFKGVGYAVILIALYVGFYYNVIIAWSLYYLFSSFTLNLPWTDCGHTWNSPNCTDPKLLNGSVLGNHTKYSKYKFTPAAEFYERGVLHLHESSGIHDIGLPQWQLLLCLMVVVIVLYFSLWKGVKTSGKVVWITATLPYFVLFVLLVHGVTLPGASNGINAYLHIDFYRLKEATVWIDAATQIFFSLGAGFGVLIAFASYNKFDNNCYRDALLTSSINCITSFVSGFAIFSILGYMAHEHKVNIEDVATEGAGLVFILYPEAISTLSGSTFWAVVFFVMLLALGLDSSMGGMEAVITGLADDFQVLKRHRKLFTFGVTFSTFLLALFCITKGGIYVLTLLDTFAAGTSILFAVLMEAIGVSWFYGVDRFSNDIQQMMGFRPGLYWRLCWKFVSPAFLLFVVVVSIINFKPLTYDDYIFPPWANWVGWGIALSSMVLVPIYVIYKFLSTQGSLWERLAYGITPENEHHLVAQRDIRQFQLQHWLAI
# [4] = system: 5-HT receptors; conditions: cited from earlier work
# [5] = system: healthy donor platelets; test: FFN246 release from platelets activated with A23187 at varying FFN246 concentrations (Example 2, FIG. 1); assay type: cell-based; conditions: for MFI of platelet releasate, FFN246+A23187: A23187 45 min
# Excerpt: Calcium (Ca) ionophores mobilize calcium ions from intracellular storage sites or transport it through the plasma membrane to increase the concentration of cytoplasmic calcium ions (Ca^2+) and thereby activate platelets. The Ca ionophore A23187 works by triggering release of Ca^2+ from the dense tubular system of platelets and is a potent activator of platelets. A23187 was used to test if FFN246 loaded platelets would release FFN246 into the supernatant upon activation.
# Platelets were then washed twice in buffer containing prostaglandin E1 (PGE1) and apyrase to minimize platelet activation. The washed platelets were resuspended in Mg^2+/Ca^2+ buffer without inhibitors. Washed platelets were then incubated with A23187 for 45 minutes, after which platelets were centrifuged for 10 minutes at 576×g. Fluorescence in the platelet releasate/supernatant was measured in a BMG Labtech Fluostar Optima fluorometer at an appropriate emission/excitation spectra. Gain was set using the FFN246 releasate for each concentration at 50% of maximum signal.
# [6] = system: healthy donor platelet rich plasma; test: Release of FFN246 vs FFN102 from platelets exposed to calcium ionophore (Example 5, FIG. 4); assay type: cell-based; conditions: 100 μM FFN; for MFI of supernatant, FFN-loaded platelets incubated with ionophore: calcium ionophore
# Description: Drawing of donor blood and preparation of donor platelets. 10-20 cc of blood were drawn off into Acid-Citrate Dextrose. 20 mL of whole blood generated 8-10 mL of platelet rich plasma (PRP). The whole blood was spun down at 180 g for 20 minutes without using the brake. Donor PRP was separated and the needed PRP was calculated for each of the FFN246 and buffer conditions. 25 μM of FFN246 was added to the PRP condition labeled “FFN246”. 2.5 μL/mL of PGE1 was added to each PRP condition simultaneously. The mixture was incubated at 37° C. for 30 minutes in a H2O bath. For example, for 2.5 mL PRP, 6.25 μL PGE1 and 6.25 μL FFN246 were added. FFN246 was not added to the buffer PRP condition.
# The mixture was centrifuged at 700 g for 10 minutes with a brake at 22° C. to 26° C. The supernatant was discarded and the platelets were gently resuspended in PGE1/Apyrase buffer 1 mL per mL PRP for 15 minutes at room temperature. For example, 2.5 mL PRP was resuspended in 2.5 mL buffer. This was centrifuged at 700 g for 10 minutes at room temperature with a brake. The supernatant was discarded and FFN246 or platelets were resuspended into 2 mL/PRP of Ca/Mg buffer after using a pipette to completely remove PGE1/apyrase containing buffer above pellet. For example, 2.5 mL of platelets was resuspended with 5 mL of HT Ca/Mg.
# When various conditions were tested, such as NP40, buffer alone, buffer+heparin, SFLLRN, and additional conditions dictated by an experiment, the following aliquots were added: agonist, plasma, or antibody; buffer added to agonist to make 50 μL total; and 150 μL of FFN246 buffer labeled platelets. The conditions were allowed to develop for 1 hour at 37° C. on an agitator. The conditions were then centrifuged at 700 g for 10 mins at room temperature with a brake. 75 μL of the supernatant was added per well in triplicate. Fluorometer analysis was ran within 1 hour at appropriate excitation/emission spectra (FFN246 ex/em (nm): 392/427).
# The amount of FFN246 released from platelets was compared to that of FFN102, a dopaminergic fluorophore. Healthy donor platelet rich plasma was incubated with 100 μM of FFN246, FFN102, or buffer alone. Incubation and washing occurred per the protocol described in Example 1. Resuspended platelets were added either to calcium ionophore or buffer conditions for both FFN246 and FFN102. Supernatant was collected following centrifugation and analyzed using fluorometry.
# [7] = biological target: dopamine transporters (DAT) (Homo sapiens, UniProt Q01959); conditions: relative to SERT uptake; cited from earlier work
# Chain of dopamine transporters (DAT) (Q01959 whole entry, species assumed): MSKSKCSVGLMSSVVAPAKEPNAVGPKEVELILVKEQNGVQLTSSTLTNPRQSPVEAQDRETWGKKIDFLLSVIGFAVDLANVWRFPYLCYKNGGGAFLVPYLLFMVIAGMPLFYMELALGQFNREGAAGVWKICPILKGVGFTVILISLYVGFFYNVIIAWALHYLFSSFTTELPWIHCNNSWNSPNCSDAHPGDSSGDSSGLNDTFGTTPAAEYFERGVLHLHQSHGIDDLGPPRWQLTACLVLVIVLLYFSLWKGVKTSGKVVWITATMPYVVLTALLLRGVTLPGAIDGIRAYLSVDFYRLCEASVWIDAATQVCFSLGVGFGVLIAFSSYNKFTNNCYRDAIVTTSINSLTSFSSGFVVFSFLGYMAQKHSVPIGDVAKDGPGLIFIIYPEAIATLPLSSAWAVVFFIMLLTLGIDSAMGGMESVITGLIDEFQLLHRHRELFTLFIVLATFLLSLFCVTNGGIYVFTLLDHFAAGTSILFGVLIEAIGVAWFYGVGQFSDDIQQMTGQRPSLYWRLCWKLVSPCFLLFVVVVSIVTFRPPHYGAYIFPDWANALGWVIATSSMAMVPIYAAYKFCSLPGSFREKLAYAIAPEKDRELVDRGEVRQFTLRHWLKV
# [8] = system: platelets; test: PF4 addition to assay conditions (platelet activation); assay type: cell-based; conditions: 30 μg/ml; healthy donor and HIT samples; absence of heparin addition
# Excerpt: PF4 addition to assay conditions. Platelet factor 4 (PF4) is a 31.2 kDa protein synthesized primarily by megakaryocytes and stored in platelet alpha granules. Positively charged PF4 forms ultra large immune complexes with negatively charged heparin in patients who develop pathological heparin induced thrombocytopenia (HIT).
molecule,measurement,setting,value
collagen,"MFI of platelet releasate, FFN246+agonist",[1],24369
same,"MFI of platelet releasate, FFN246+agonist or antibody, no heparin",[2]; A23187 10 μM,24388
ristocetin,"MFI of platelet releasate, FFN246+agonist",[1],12247
NCCc1ccc2[nH]c3cccc(F)c3c(=O)c2c1 [FFN246],"MFI of platelet releasate, FFN246+buffer","[1]; 50 μM FFN246, no agonist",12199
same,"uptake by norepinephrine transporters (NET), lower than SERT",[3],23%
same,activity at 5-HT receptors,[4],no activity at 5-HT receptors
same,binding to neurotransmitter receptors,[4],does not bind to neurotransmitter receptors
same,"MFI of platelet releasate, FFN246+A23187",[5]; 10 uM FFN246,"25,790"
same,"MFI of platelet releasate, FFN246+A23187",[5]; 25 μM FFN246,"36,124"
same,"MFI of platelet releasate, FFN246+A23187",[5]; 50 μM FFN246,"30,470"
same,"MFI of platelet releasate, FFN246+A23187",[5]; 100 μM FFN246,"35,405"
same,"MFI of supernatant, FFN-loaded platelets incubated with buffer",[6],"15,692+1203"
same,"MFI of supernatant, FFN-loaded platelets incubated with ionophore",[6],32901+448
same,"MFI of platelet releasate, FFN246+buffer","[2]; 50 μM FFN246, no agonist",11688
same,"uptake by dopamine transporters (DAT), lower than SERT",[7],31%
CNc1ccc2oc(C[C@H]3O[C@@]4(CC[C@H]3C)O[C@H]([C@H](C)C(=O)c3ccc[nH]3)[C@H](C)C[C@H]4C)nc2c1C(=O)O [A23187],"MFI of platelet releasate, buffer+calcium ionophore (no FFN246)",[1]; buffer only platelets + A23187 10 μM,12526
same,"MFI of platelet releasate, FFN246+agonist",[1],31924
same,"MFI of platelet releasate, buffer+A23187 (no FFN246)",[5]; background paired with 10 uM FFN246 condition,"10,100"
same,"MFI of platelet releasate, buffer+A23187 (no FFN246)",[5]; background paired with 25 μM FFN246 condition,"4,707"
same,"MFI of platelet releasate, buffer+A23187 (no FFN246)",[5]; background paired with 50 μM FFN246 condition,"3,461"
same,"MFI of platelet releasate, buffer+A23187 (no FFN246)",[5]; background paired with 100 μM FFN246 condition,"1,676"
same,"MFI of platelet releasate, buffer+calcium ionophore (no FFN246)","[2]; A23187 10 μM, no FFN246",11399
same,"MFI of platelet releasate, FFN246+agonist or antibody, no heparin",[2]; A23187 10 μM,32674
"Nc1ncnc2c1ncn2[C@@H]1O[C@H](COP(=O)(O)OP(=O)(O)O)[C@@H](O)[C@H]1O [ADP, adenosine diphosphate]","MFI of platelet releasate, FFN246+agonist",[1],14013
Cl.NCCc1cc(=O)oc2cc(O)c(Cl)cc12 [FFN102],"MFI of supernatant, FFN-loaded platelets incubated with buffer",[6],7247+352
same,"MFI of supernatant, FFN-loaded platelets incubated with ionophore",[6],9845+352
SFLLRN,"MFI of platelet releasate, FFN246+agonist",[1],26703
same,"MFI of platelet releasate, FFN246+agonist or antibody, no heparin",[2]; A23187 10 μM,25426
B1,platelet activation by exogenous PF4 added to plasma conditions,[8],led to platelet activation
